Test results as given in patent US20250340522A1, “ALBICIDIN DERIVATIVES, THEIR USE AND SYNTHESIS” (priority 2022, published 2025).
In brackets after ≈: the same amount, converted by molar mass.

What was measured:
[1] = test system: Pantoea dispersa; details: humans infected with the pathogen; background statement; cited from earlier work
[2] = test system: E. Coli. (50% human serum); assay: MIC, microdilution assay in presence of 50% human serum; format: cell-based; details: Escherichia coli, 20 h, Gram-negativ
Experimental: E. coli BW25113, S. typhimurium TA100; Bacillus subtilis DSM10; and M. phlei DSM 750 and human serum
(§1) The tests were performed using the micro dilution method.
(§2) The determination of MIC values was performed according to the ninth edition of the Approved Standard M07-A9 (CLSI. Methods for Dilution Antimicrobial Susceptibility Tests for Bacteria That Grow Aerobically; Approved Standard-Ninth Edition. CLSI document M07-A9. Wayne, PA: Clinical and Laboratory Standards Institute; 2012.)
(§3) The test was carried out for different bacterial strains (E. coli DSM 1116, E. coli BW25113 [gram negative], B. subtilis DSM 10 [gram positive], M. luteus DSM 1790 [gram positive], S. typhimurium TA100 [gram negative]) and M. phlei DSM 750. 20 µL of cryo stock of each strain were inoculated in 20 mL of LB media (Lysogeny broth: 10 g/L peptone, 5 g/L yeast extract, 5 g/L NaCl) followed by incubation over night at 37° C., 200 rpm. The test inoculum was adjusted by the 0.5 McFarland Standard (OD625 from 0.08 to 0.1). Within 15 min of preparation, the adjusted inoculum suspension was diluted in MHBII media (BBL TM Mueller-Hinton Broth II, Becton, Dickinson and Company, New Jersey/USA) so that each well contained approximately 5×10^5 CFU/mL in a final volume of 100 μL. 95 μL of the inoculum were applied per well and 5 μL of the (diluted) antibiotic substance were added.
(§4) Previously the dry antibiotic compounds were dissolved in DMSO (100%) with a concentration of 2560 μg/mL and the resulting stock solutions were further diluted in DMSO (100%). […] of each antibiotic dilution were applied to the microdilution tray to reach final concentrations of 64 μg/mL to 0.008 μg/ml. One row of each well plate was left as a growth control without antibiotic substances and another row of the microdilution tray was used as sterility control (only MHB II-media). The antimicrobial effect of the solvent (DMSO) was tested by adding 5 μL DMSO to several wells without antibiotics. Purity check and cell titer control were performed according to International Standard M07-A9 on Mueller-Hinton II Agar (Mueller Hinton II Broth, 15 g/L agar-agar). Both microdilution trays and agar plates were incubated at 37° C. for 20 h and subsequently analyzed visually.
(§5) The potency of an antibiotic is determined by the minimum inhibitory concentration (MIC). Contrary to intuition, a particularly low value is equated with a high potency.

[3] = test system: B. subtilis DSM 10; assay: MIC, microdilution assay (CLSI M07-A9); format: cell-based; details: Bacillus subtilis, DSM10, Gram-positiv, MHBII media, 37° C., 20 h, tested 64 to 0.008 μg/mL
Experimental: as §1, §2, §3, §4, §5

[4] = test system: S. typhimurium TA100; assay: MIC, microdilution assay (CLSI M07-A9); format: cell-based; details: Salmonella enterica, Gram-negativ, MHBII media, 37° C., 20 h, tested 64 to 0.008 μg/mL, read-out: MIC S. Typhimirium
Experimental: as §1, §2, §3, §4, §5

[5] = test system: M. luteus DSM 1790; assay: MIC, microdilution assay (CLSI M07-A9); format: cell-based; details: Micrococcus luteus, DSM1790, Gram-positiv, MHBII media, 37° C., 20 h, tested 64 to 0.008 μg/mL
Experimental: as §1, §2, §3, §4, §5

[6] = test system: M. phlei DSM 750; assay: MIC, microdilution assay (CLSI M07-A9); format: cell-based; details: Mycolicibacterium phlei, DSM750, MHBII media, 37° C., 20 h, tested 64 to 0.008 μg/mL
Experimental: as §1, §2, §3, §4, §5

[7] = test system: E. coli BW25113; assay: MIC, microdilution assay (CLSI M07-A9); format: cell-based; details: Escherichia coli, Gram-negativ, MHBII media, 37° C., 20 h, tested 64 to 0.008 μg/mL
Experimental: as §1, §2, §3, §4, §5

[8] = test system: selected strains; assay: Antibacterial activity against selected strains, overall comparison with lead structure (Table 1); format: cell-based; details: D-variations in Table 1
Experimental: as §1, §2
The test was carried out for different bacterial strains (E. coli DSM 1116, E. coli BW25113 [gram negative], B. subtilis DSM 10 [gram positive], M. luteus DSM 1790 [gram positive], S. typhimurium TA100 [gram negative]) and M. phlei DSM 750. 20 µL of cryo stock of each strain were inoculated in 20 mL of LB media (Lysogeny broth: 10 g/L peptone, 5 g/L yeast extract, 5 g/L NaCl) followed by incubation over night at 37° C., 200 rpm. The test inoculum was adjusted by the 0.5 McFarland Standard (OD625 from 0.08 to 0.1). […]
Previously the dry antibiotic compounds were dissolved in DMSO (100%) with a concentration of 2560 μg/mL and the resulting stock solutions were further diluted in DMSO (100%). […] Both microdilution trays and agar plates were incubated at 37° C. for 20 h and subsequently analyzed visually.
The potency of an antibiotic is determined by the minimum inhibitory concentration (MIC). […]

O=C(O)[C@H]1/C(=C/CO)O[C@@H]2CC(=O)N21 [Clavulanic acid]
Treatment outcome of Pantoea dispersa infection [1]: ineffective

COc1c(NC(=O)c2ccc(NC(=O)c3ccc(NC(=O)[C@H](Cc4c[nH]nn4)NC(=O)c4ccc(NC(=O)/C(C)=C/c5ccc(O)cc5)cc4)cn3)c(OC)c2O)ccc(C(=O)O)c1O [Compound 0, reference compound]
MIC [2]: 0.5 µg/mL | MIC [3]: 0.031 µg/mL (≈ 0.035 µM) | MIC [4]: ≤ 0.016 µg/mL | MIC [5]: 0.031 µg/mL (≈ 0.035 µM) | MIC [6]: 0.125 µg/mL (≈ 0.141 µM) | MIC [7]: ≤ 0.016 µg/mL

COc1c(NC(=O)c2ccc(NC(=O)c3ccc(NC(=O)[C@H](Cc4c[nH]nn4)NC(=O)c4ccc(NC(=O)/C(C)=C/c5ccc(O)cc5)cc4)cc3F)c(OC)c2O)ccc(C(=O)O)c1O [Compound 1]
MIC [2]: 1 µg/mL | MIC [3]: 0.125 µg/mL (≈ 0.138 µM) | MIC [4]: ≤ 0.016 µg/mL | MIC [5]: 0.031 µg/mL (≈ 0.0343 µM) | MIC [6]: 1 µg/mL (≈ 1.11 µM) | MIC [7]: 0.016 µg/mL (≈ 0.0177 µM)

COc1c(NC(=O)c2ccc(NC(=O)c3c(F)cc(NC(=O)[C@H](Cc4c[nH]nn4)NC(=O)c4ccc(NC(=O)/C(C)=C/c5ccc(O)cc5)cc4)cc3F)c(OC)c2O)ccc(C(=O)O)c1O [Compound 2]
Activity compared with the lead structure (0) [8]: about as active as the lead structure (0) | MIC [2]: 0.5 µg/mL | MIC [3]: 0.125 µg/mL (≈ 0.136 µM) | MIC [4]: ≤ 0.016 µg/mL | MIC [5]: 0.25 µg/mL (≈ 0.271 µM) | MIC [6]: 1 µg/mL (≈ 1.09 µM) | MIC [7]: ≤ 0.016 µg/mL

COc1c(NC(=O)c2ccc(NC(=O)c3ccc(NC(=O)[C@H](Cc4c[nH]nn4)NC(=O)c4ccc(NC(=O)/C(C)=C/c5ccc(O)cc5)cc4)cc3Cl)c(OC)c2O)ccc(C(=O)O)c1O [Compound 3]
Activity compared with the lead structure (0) [8]: about as active as the lead structure (0) | MIC [2]: 0.5 µg/mL | MIC [3]: 0.063 µg/mL (≈ 0.0685 µM) | MIC [4]: ≤ 0.016 µg/mL | MIC [6]: 0.5 µg/mL (≈ 0.544 µM) | MIC [7]: ≤ 0.016 µg/mL

COc1c(NC(=O)c2ccc(NC(=O)c3ccc(NC(=O)[C@H](Cc4c[nH]nn4)NC(=O)c4ccc(NC(=O)/C(C)=C/c5ccc(O)cc5)cc4)cc3C(F)(F)F)c(OC)c2O)ccc(C(=O)O)c1O [Compound 5]
MIC [2]: ≥ 8 µg/mL | MIC [3]: 4 µg/mL (≈ 4.2 µM) | MIC [4]: 0.031 µg/mL (≈ 0.0325 µM) | MIC [5]: 4 µg/mL (≈ 4.2 µM) | MIC [6]: 8 µg/mL (≈ 8.4 µM) | MIC [7]: 0.125 µg/mL (≈ 0.131 µM)

COc1c(NC(=O)c2ccc(NC(=O)c3ccc(NC(=O)[C@H](Cc4c[nH]nn4)NC(=O)c4ccc(NC(=O)/C(C)=C/c5ccc(O)cc5)cc4)cc3Br)c(OC)c2O)ccc(C(=O)O)c1O [Compound 6]
MIC [2]: 1 µg/mL | MIC [3]: 0.125 µg/mL (≈ 0.13 µM) | MIC [4]: 0.016 µg/mL (≈ 0.0166 µM) | MIC [5]: 0.5 µg/mL (≈ 0.519 µM) | MIC [6]: 1 µg/mL (≈ 1.04 µM) | MIC [7]: 0.016 µg/mL (≈ 0.0166 µM)

COc1c(NC(=O)c2ccc(NC(=O)c3ccc(NC(=O)[C@H](Cc4c[nH]nn4)NC(=O)c4ccc(NC(=O)/C(C)=C/c5ccc(O)cc5)cc4)cc3I)c(OC)c2O)ccc(C(=O)O)c1O [Compound 8]
MIC [2]: ≥ 8 µg/mL | MIC [3]: 0.5 µg/mL (≈ 0.495 µM) | MIC [4]: 0.031 µg/mL (≈ 0.0307 µM) | MIC [5]: 4 µg/mL (≈ 3.96 µM) | MIC [6]: 4 µg/mL (≈ 3.96 µM) | MIC [7]: 0.063 µg/mL (≈ 0.0623 µM)

CN(C)c1cc(NC(=O)CNC(C)(C)C)c(O)c2c1C[C@H]1C[C@H]3[C@H](N(C)C)C(O)=C(C(N)=O)C(=O)[C@@]3(O)C(O)=C1C2=O [tigecycline]
Treatment outcome of Pantoea dispersa infection [1]: successful

colistin
Treatment outcome of Pantoea dispersa infection [1]: successful
